Molecular target: T1, RIPK2 (Homo sapiens, UniProt O43353)
T1 construct: Full length FLAG His tagged RIPK2 was purified from a Baculovirus expression system; FLAG (N); 6His (N); made in house; host or cells: Spodoptera frugiperda (Sf9) insect cells, baculovirus
Assay: Fluorescent polarization based binding assay at the ATP binding pocket of RIPK2
Conditions: full length FLAG His tagged RIPK2; competition with fluorescently labeled ATP competitive ligand (5 nM); mean of a minimum of 2 experiments; read-out: mean pIC50 (converted)
From the text: A fluorescent polarization based binding assay was developed to quantitate interaction of novel test compounds at the ATP binding pocket of RIPK2, by competition with a fluorescently labeled ATP competitive ligand. Full length FLAG His tagged RIPK2 was purified from a Baculovirus expression system and was used at a final assay concentration of twice the KDapparent. A fluorescent labeled ligand (5-({[2-({[3-({4-[(5-hydroxy-2-methylphenyl)amino]-2-pyrimidinyl}amino)phenyl]carbonyl}amino)ethyl]amino}carbonyl)-2-(6-hydroxy-3-oxo-3H-xanthen-9-yl)benzoic acid, prepared as described below) was used at a final assay concentration of 5 nM. Both the enzyme and ligand were prepared in solutions in 50 mM HEPES pH7.5, 150 mM NaCl, 10 mM MgCl2, 1 mM DTT, and 1 mM CHAPS. Test compounds were prepared in 100% DMSO and 100 nL was dispensed to individual wells of a multiwell plate. Next, 5 ul RIPK2 was added to the test compounds at twice the final assay concentration, and incubated at room temperature for 10 minutes. […] Finally, samples were read on an instrument capable of measuring fluorescent polarization. Test compound inhibition was expressed as percent (%) inhibition of internal assay controls.
For concentration response experiments, normalized data were fit and pIC50s determined using conventional techniques. […]

T1 sequence (O43353 whole entry): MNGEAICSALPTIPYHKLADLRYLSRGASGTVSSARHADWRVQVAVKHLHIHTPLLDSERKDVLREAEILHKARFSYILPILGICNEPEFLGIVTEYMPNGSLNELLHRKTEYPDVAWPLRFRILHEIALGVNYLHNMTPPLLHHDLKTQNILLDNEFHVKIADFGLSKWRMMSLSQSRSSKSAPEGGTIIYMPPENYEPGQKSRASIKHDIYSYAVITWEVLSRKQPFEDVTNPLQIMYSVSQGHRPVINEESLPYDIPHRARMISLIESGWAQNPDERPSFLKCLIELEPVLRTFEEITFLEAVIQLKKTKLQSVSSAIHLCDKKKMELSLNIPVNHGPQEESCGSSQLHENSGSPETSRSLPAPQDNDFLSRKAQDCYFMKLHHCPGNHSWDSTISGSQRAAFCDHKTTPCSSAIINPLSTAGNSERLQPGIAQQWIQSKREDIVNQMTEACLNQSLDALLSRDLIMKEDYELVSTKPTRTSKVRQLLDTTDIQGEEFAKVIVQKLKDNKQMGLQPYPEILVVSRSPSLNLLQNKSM

Compound	IC50
COc1cc(Nc2nccc(Nc3[nH]nc(C)c3C)n2)cc(OC)c1OC [Example 1, N^4-(3,4-Dimethyl-1H-pyrazol-5-yl)-N^2-[3,4,5-tris(methyloxy)phenyl]-2,4-pyrimidinediamine]	10 nM
COc1ccc(-n2nc(C(F)(F)F)cc2Nc2ccnc(Nc3ccc(OC)c(OC)c3)n2)cc1 [Example 21, N^2-[3,4-bis(methyloxy)phenyl]-N^4-[1-[4-(methyloxy)phenyl]-3-(trifluoromethyl)-1H-pyrazol-5-yl]-2,4-pyrimidinediamine]	251 nM

Reference: patent publication US20130023534A1, “PYRAZOLYL-PYRIMIDINES AS KINASE INHIBITORS” (priority 2010, published 2013)
